# Assay results taken from patent publication US4072686A, “1-(3,3,3-Triarylalkyl)-4-phenyl-piperidinealkanols” (G. D. Searle & Co., priority 1976, dated 1978).
# Read-outs that look alike come from different tables or passages of the source.
# How the values were obtained:
# [1] = Castor oil induced diarrhea in the rat; format: in vivo, rat (adult Charles River male); conditions: for Potency (relative to diphenoxylate hydrochloride): oral, diphenoxylate = 1.0
# Method: CASTOR OIL INDUCED DIARRHEA IN THE RAT
# Adult Charles River male rats were fasted in community cages for 24 hours prior to the test, with free access to water. The compound was administered intragastrically (suspended on 0.5% methylcellulose) one hour prior to the administration of castor oil at the dose of 1.0 ml/rat intragastrically. The rats were then observed for the presence or absence of diarrhea, at hourly intervals for up to 8 hours past administration of castor oil. The median effective dose values at each hourly interval were calculated for the compound using the method of Berkson (1953). […] For example:
# Comparative Oral Antidiarrheal Potency and Duration of 1-(3,3,3-triphenylpropyl)-4-phenyl-4-piperidinemethanol hydrochloride (a) to Diphenoxylate hydrochloride in the Rat Castor Oil Diarrhea Test
# [2] = Mouse tail clip test (analgesia); format: in vivo; conditions: at 100 and 30 mpk
# Method: (§1) The assessment of the analgesic effect of the instant compounds was conducted in the mouse hot plate and tail clip tests.
# (§2) A special clip is applied to the base of the tail of the mouse (adult male weighing 18-25 grams) and the time for the animal to turn around to bite as it is measured. The sensitivity of each mouse is determined one-half hour prior to drug administration. Only those mice attempting to bite the clip are included in the experiment. The test compound is then administered intragastrically and the response to placement of the clip is determined at 30, 60, 90 and 120 minutes after treatment. A response is considered positive if the animal takes more than 2 times the pre-drug time to bite at the clip at any of these time intervals. A test compound is considered active when 50 percent or more of the animals used show a positive response.
# [3] = Analgesic effect in the mouse hot plate and tail clip tests; format: in vivo
# Method: as §1
# A mouse (adult male weighing 18-25 grams) is placed in a restraining cylinder on a hot plate with the temperature controlled at 55° ± 0.3° C. The reaction time of the mouse to lick a foot or jump is measured at 60, 40 and 20 minutes before and 30, 60, 90 and 120 minutes after administration of the test compound. The "normal" reaction time is measured as the median of the three pretreatment reaction times. A positive response consists of a reaction time greater than twice the normal time at any of the post treatment times. A dose of the test compound is considered active when 50 percent or more of the animals used show a positive response.
# as §2, with “A test compound is considered active when 50 percent or more of the animals used show a positive response.” left out
# [4] = Rat2, oral (intragastric), rat, 2 hours after castor oil, read-out: ED50
# [5] = oral (intragastric), rat, 3 hours after castor oil, read-out: ED50
# [6] = oral (intragastric), rat, 4 hours after castor oil, read-out: ED50
# [7] = oral (intragastric), rat, 5 hours after castor oil, read-out: ED50
# [8] = oral (intragastric), rat, 6 hours after castor oil, read-out: ED50
# [9] = oral (intragastric), rat, 7 hours after castor oil, read-out: ED50
# [10] = oral (intragastric), rat, 8 hours after castor oil, read-out: ED50
SMILES,"ED50 [1, 4] [mg/kg]","ED50 [1, 5] [mg/kg]","ED50 [1, 6] [mg/kg]","ED50 [1, 7] [mg/kg]","ED50 [1, 8] [mg/kg]","ED50 [1, 9] [mg/kg]","ED50 [1, 10] [mg/kg]",other results
"CCOC(=O)C1(c2ccccc2)CCN(CCC(c2ccccc2)(c2ccccc2)c2ccccn2)CC1 [ethyl 1-[3,3-diphenyl-3-(2-pyridyl)propyl]-4-phenyl-4-piperidinecarboxylate]",–,–,–,–,–,–,–,"ED50 ([1]; Rattus norvegicus, po, 2 h, read-out: ED50 2 hrs. post castor oil): 0.04 mg/kg; analgesia (mouse tail clip test) [2]: weak analgesia"
"CCOC(=O)C1(c2ccccc2)CCN(CCC(C#N)(c2ccccc2)c2ccccc2)CC1 [Diphenoxylate, reference compound]",0.22,0.36,0.71,1.21,1.62,1.85,1.93,–
"OCC1(c2ccccc2)CCN(CCC(c2ccccc2)(c2ccccc2)c2ccccc2)CC1 [1-(3,3,3-triphenylpropyl)-4-phenyl-4-piperidinemethanol]",–,–,–,–,–,–,–,"ability to inhibit gastrointestinal motility ([1]; intragastric, rat): very active; analgesic effect [3]: very little analgesic effect"
"Cl.OCC1(c2ccccc2)CCN(CCC(c2ccccc2)(c2ccccc2)c2ccccc2)CC1 [(a), 1-(3,3,3-triphenylpropyl)-4-phenyl-4-piperidinemethanol hydrochloride]",0.14,0.18,0.24,0.28,0.28,0.28,0.35,"Potency (relative to diphenoxylate hydrochloride) ([1]; rat, 2 hours after castor oil): 1.35; Potency (relative to diphenoxylate hydrochloride) ([1]; rat, 3 hours after castor oil): 2.25; Potency (relative to diphenoxylate hydrochloride) ([1]; rat, 4 hours after castor oil): 3.25; Potency (relative to diphenoxylate hydrochloride) ([1]; rat, 5 hours after castor oil): 4.33; Potency (relative to diphenoxylate hydrochloride) ([1]; rat, 6 hours after castor oil): 5.71; Potency (relative to diphenoxylate hydrochloride) ([1]; rat, 7 hours after castor oil): 6.44; Potency (relative to diphenoxylate hydrochloride) ([1]; rat, 8 hours after castor oil): 5.42"
